For this data set, the system named is isolated pancreatic islets. Description: Glucose-dependent insulin secretion of isolated islets after in vivo MnCl2:Bicine (radioimmunoassay). More on the design: species or system mice. Here is the method:
The chronic exposure to high concentrations of Mn can potentially lead to cytotoxic effects on heart, liver and brain [26]. We hypothesized that the early and late retention of Mn might impair the physiological integrity of the glucose-dependent insulin response of islet cells. To investigate the physiological function of the islets, glucose-dependent insulin secretion was measured in vitro 1 or 24 h after a single systemic in vivo administration of MnCl2:Bicine solution (75 µmol/kg) on a new group of mice (Table. 1, Group 4). Secretion assays were performed on isolated islets, followed by quantification of insulin content using radioimmunoassay. The response to glucose of each individual mouse was assessed by calculating the enhancement of insulin secretion between basal (3 mM) and stimulating glucose concentration (15 mM).
Before the isolation of islets, control and RIP1-Tag2 mice previously anesthetized using 1-2% isoflurane/O2 gas mixture (Vetland, Louisville, KY, USA) and intravenously injected with a bolus of MnCl2:Bicine solution (75 µmol/kg), analogously to the in vivo imaging protocol. […] The content of insulin in the supernatant was determined by radioimmunoassay using as insulin standards Millipore 8013-K (Merck, Darmstadt, DE). […]

Regarding MnCl2:Bicine, the “effect of contrast agent accumulation on glucose-dependent insulin secretion response” value (islets isolated 1 h and 24 h after single i.v. 75 µmol/kg, 8-wk old control and RIP1-Tag2 mice) is “not affected”. The “enhancement of insulin secretion, stimulating (15 mM) vs basal (3 mM) glucose” value (islets of 8-wk old control and RIP1-Tag2 mice isolated 1 or 24 h after single i.v. 75 µmol/kg, radioimmunoassay, n=3/3) is listed as 10-20 times.

(Values after paper PMC6929626, “PET/MRI enables simultaneous in vivo quantification of β-cell mass and function” (Theranostics, 2020).)
